Values quoted from earlier work as cited in patent publication US20160194352A1, “AMORPHOUS FORMS OF DACLATASVIR DIHYDROCHLORIDE” (Dr.Reddy's Laboratories Ltd., priority 2015, published 2016).

Tested on: HCV
Details: HCV infected patients, combination therapy

alpha-interferon and ribavirin
sustained efficacy, share of patients: 40% of patients
